In US7807400B2, “Methods for identifying chemical modulators of Ras superfamily GTPase activity” (The University of North Carolina at Chapel Hill, priority 2004, dated 2010):
Entries after “also recorded” stand apart in the source; their conditions may differ. Values belong to the molecule of their own block, whether it stands above or below them.

Assays:
Type in all cases: biochemical
[1] = target: Dbs-mediated activation of RhoA (Homo sapiens, UniProt P61586); assay: fluorescence guanine nucleotide exchange reaction, Dbs-mediated activation of RhoA; details: fluorescence after addition of GEF, versus DMSO vehicle control
Rac1 = Rac1 (Homo sapiens, UniProt P63000); assay: complementary radiolabeled nucleotide exchange assay on Rac1
RhoA = RhoA (Homo sapiens, UniProt P61586); assay: complementary radiolabeled nucleotide exchange assay on RhoA
Cdc42 = Cdc42 (Homo sapiens, UniProt P60953); assay: complementary radiolabeled nucleotide exchange assay on Cdc42
H-Ras = H-Ras (Homo sapiens, UniProt P01112); assay: complementary radiolabeled nucleotide exchange assay on H-Ras
[2] = tested on: Tiam1-mediated activation of Rac1; assay: fluorescence based guanine nucleotide exchange assay, Tiam1-mediated activation of Rac1
Rap2A = target: T1, Rap2A (Homo sapiens, UniProt P10114); assay: intrinsic guanine nucleotide exchange of Gpp(NH)p-preloaded Rap2A with mant-GTP (FRET); details: 1 μM RGS14 RBD protein, 100 nM Rap2A, 1 μM mant-GTP, 37° C., compared to Rap2A alone, p<0.05
T1 sequence (P10114 1-183): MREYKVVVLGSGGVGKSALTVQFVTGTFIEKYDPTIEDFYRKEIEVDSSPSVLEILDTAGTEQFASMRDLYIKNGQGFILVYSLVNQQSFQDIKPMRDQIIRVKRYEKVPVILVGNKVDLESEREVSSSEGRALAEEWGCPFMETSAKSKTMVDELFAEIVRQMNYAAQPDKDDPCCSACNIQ
Experimental: The intrinsic guanine nucleotide exchange rate of Gpp(NH)p-preloaded Rap2A (100 nM) was monitored with mant-GTP in the absence (solid) or presence (dashed) of the RBD tandem repeat (aa 300-447) from the putative Rap2A effector rat RGS14 (1 μM). In this example, 1 mL cuvettes were loaded with 1 μM mant-GTP (in 50 mM Tris pH 7.5, 5 mM MgCl2, 1 mM EDTA at 37° C.) and allowed to equilibrate prior to the addition of 100 nM Rap2A (preloaded with Gpp(NH)p) in the presence or absence of 1 μM of the RGS14 RBD protein. The dissociation of Gpp(NH)p was then measured by excitation of the tryptophan residue. The FRET-mediated excitation of bound mant-GTP was also measured. Binding of the RGS14 RBD repeat region to activated Rap2A prevents the loss of guanine nucleotide from the G-protein, thereby effectively acting as a guanine nucleotide dissociation inhibitor (GDI). Further, the incubation of Rap2A with the RGS14 tandem RBD repeat region slowed the rate of spontaneous nucleotide exchange by about 30% (p<0.05) when compared to that of Rap2A alone. Curves were fit as single exponential functions using GraphPad Prism™ (GraphPad Software, Inc.). […]

Sequence of H-Ras (P01112 whole entry, species assumed): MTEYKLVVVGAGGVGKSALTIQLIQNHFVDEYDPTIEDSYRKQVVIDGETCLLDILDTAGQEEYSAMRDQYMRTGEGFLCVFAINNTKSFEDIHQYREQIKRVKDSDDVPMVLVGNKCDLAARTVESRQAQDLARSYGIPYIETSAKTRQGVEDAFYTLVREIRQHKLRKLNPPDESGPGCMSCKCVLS
Sequence of Dbs-mediated activation of RhoA (P61586 whole entry): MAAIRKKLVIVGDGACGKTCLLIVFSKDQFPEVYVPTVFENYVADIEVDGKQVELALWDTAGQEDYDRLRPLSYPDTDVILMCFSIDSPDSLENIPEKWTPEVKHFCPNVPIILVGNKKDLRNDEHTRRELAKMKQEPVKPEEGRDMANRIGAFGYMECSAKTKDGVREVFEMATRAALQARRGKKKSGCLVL
Sequence of RhoA (P61586 whole entry, species assumed): as the sequence (P61586 whole entry) above
Sequence of Cdc42 (P60953 whole entry, species assumed): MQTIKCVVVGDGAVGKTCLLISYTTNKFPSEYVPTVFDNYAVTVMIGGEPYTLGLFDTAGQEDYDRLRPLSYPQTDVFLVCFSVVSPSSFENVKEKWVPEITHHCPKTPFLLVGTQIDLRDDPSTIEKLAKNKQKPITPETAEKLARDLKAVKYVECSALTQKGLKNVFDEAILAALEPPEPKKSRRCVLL

effect on Dbs-mediated RhoA activation / guanine nucleotide exchange [1]: inhibit guanine nucleotide exchange
Molecule: Nc1nc2c(ncn2[C@@H]2O[C@H](COP(=O)(O)OP(=O)(O)O)[C@@H](O)[C@H]2O)c(=O)[nH]1 [GDP]

Molecule: O=C(O)C=Cc1ccc[c]([SbH]([O-])([OH])[OH])c1 [NSC#13778, 3-(3-(dihydroxy(oxido)stibino)phenyl)acrylic acid]
activity in complementary radiolabeled assay (Rac1) (Rac1): confirmed | enhancement of nucleotide exchange on RhoA (RhoA): does not enhance nucleotide exchange | enhancement of nucleotide exchange on Cdc42 (Cdc42): does not enhance nucleotide exchange | enhancement of nucleotide exchange on H-Ras (H-Ras): does not enhance nucleotide exchange | effect on GEF-mediated nucleotide exchange on Rac1 ([2]; NCI Diversity Set screen, 96-well kinetic format, secondary studies in 1 mL total volume): accelerated kinetics; also recorded: enhancing Tiam1-mediated Rac1 activation in a dose-dependent manner; also recorded: accelerates GEF-mediated nucleotide exchange on Rac1 in a dose-dependent manner | EC50 ([2]; acceleration of GEF-mediated nucleotide exchange on Rac1): ~4 µM

slowing of the rate of spontaneous nucleotide exchange of Rap2A (Rap2A): about 30%
B1: RGS14 tandem RBD repeat region: RBD tandem repeat (aa 300-447) from the putative Rap2A effector rat RGS14 (protein, UniProt O08773 300-447, looked up, fragment)
chain: KYCCVYLPDGTASLALARPGLTIRDMLAGICEKRGLSLPDIKVYLVGKEQKALVLDQDCTVLADQEVRLENRITFQLELVGLERVVRISAKPTKRLQEALQPILAKHGLSLDQVVLHRPGEKQLVDLENLVSSVASQTLVLDTLPDAK
